Data published in ChEMBL document CHEMBL3044707, “Synthesis of some new glutamine linked 2,3-disubstituted quinazolinone derivatives as potent antimicrobial and antioxidant agents” (Med Chem Res, 2013).
Converted amounts (≈) assume the structure as drawn.

Key:
Format in all cases: functional
[1] = system: Pseudomonas aeruginosa; experiment: Antimicrobial activity against Pseudomonas aeruginosa NCIM 5029 assessed as diameter of growth inhibition zone at 100 ug/ml after 24 hr by paper disk diffusion method; details: NCIM 5029, 24 h, read-out: DIZ
[2] = system: Bacillus subtilis; experiment: Antimicrobial activity against Bacillus subtilis NCIM 2999 assessed as growth inhibition by agar streak dilution method
[3] = system: Radical scavenging activity; experiment: Antioxidant activity assessed as DPPH radical scavenging activity by visible spectrophotometric analysis
[4] = system: Escherichia coli; experiment: Antimicrobial activity against Escherichia coli NCIM 2574 assessed as growth inhibition by agar streak dilution method
[5] = Antioxidant activity assessed as inhibition of Fe3+/ascorbic acid-induced hydroxyl radical production-mediated 2-deoxyribose degradation after 1 hr
[6] = system: Pseudomonas aeruginosa; experiment: Antimicrobial activity against Pseudomonas aeruginosa NCIM 5029 assessed as growth inhibition by agar streak dilution method
[7] = system: Staphylococcus aureus; experiment: Antimicrobial activity against Staphylococcus aureus NCIM 5021 assessed as growth inhibition by agar streak dilution method
[8] = system: Candida albicans; experiment: Antimicrobial activity against Candida albicans NCIM 3102 assessed as growth inhibition by agar streak dilution method
[9] = system: Candida albicans; experiment: Antimicrobial activity against Candida albicans NCIM 3102 assessed as diameter of growth inhibition zone at 100 ug/ml after 48 hr by paper disk diffusion method; details: NCIM 3102, 48 h, read-out: DIZ
[10] = system: Aspergillus flavus; experiment: Antimicrobial activity against Aspergillus flavus NCIM 524 assessed as diameter of growth inhibition zone at 100 ug/ml after 48 hr by paper disk diffusion method; details: NCIM 524, 48 h, read-out: DIZ
[11] = system: Escherichia coli; experiment: Antimicrobial activity against Escherichia coli NCIM 2574 assessed as diameter of growth inhibition zone at 100 ug/ml after 24 hr by paper disk diffusion method; details: NCIM 2574, 24 h, read-out: DIZ
[12] = system: Bacillus subtilis; experiment: Antimicrobial activity against Bacillus subtilis NCIM 2999 assessed as diameter of growth inhibition zone at 100 ug/ml after 24 hr by paper disk diffusion method; details: NCIM 2999, 24 h, read-out: DIZ
[13] = system: Aspergillus flavus; experiment: Antimicrobial activity against Aspergillus flavus NCIM 524 assessed as growth inhibition by agar streak dilution method
[14] = system: Staphylococcus aureus; experiment: Antimicrobial activity against Staphylococcus aureus NCIM 5021 assessed as diameter of growth inhibition zone at 100 ug/ml after 24 hr by paper disk diffusion method; details: NCIM 5021, 24 h, read-out: DIZ
[15] = Antioxidant activity assessed as inhibition of xanthine-xanthine oxidase generated superoxide anion radical-mediated NBT reduction by spectrophotometric analysis
[16] = Antioxidant activity assessed as inhibition of NO radical production from sodium nitroprusside after 150 min by Griess reagent analysis
[17] = system: Aspergillus flavus; experiment: Antimicrobial activity against Aspergillus flavus NCIM 524 assessed as diameter of growth inhibition zone at 10 ug/disk after 48 hr by paper disk diffusion method; details: NCIM 524, 48 h, read-out: DIZ
[18] = system: Candida albicans; experiment: Antimicrobial activity against Candida albicans NCIM 3102 assessed as diameter of growth inhibition zone at 10 ug/disk after 48 hr by paper disk diffusion method; details: NCIM 3102, 48 h, read-out: DIZ
[19] = system: Pseudomonas aeruginosa; experiment: Antimicrobial activity against Pseudomonas aeruginosa NCIM 5029 assessed as diameter of growth inhibition zone at 10 ug/disk after 24 hr by paper disk diffusion method; details: NCIM 5029, 24 h, read-out: DIZ
[20] = system: Staphylococcus aureus; experiment: Antimicrobial activity against Staphylococcus aureus NCIM 5021 assessed as diameter of growth inhibition zone at 10 ug/disk after 24 hr by paper disk diffusion method; details: NCIM 5021, 24 h, read-out: DIZ
[21] = system: Escherichia coli; experiment: Antimicrobial activity against Escherichia coli NCIM 2574 assessed as diameter of growth inhibition zone at 10 ug/disk after 24 hr by paper disk diffusion method; details: NCIM 2574, 24 h, read-out: DIZ
[22] = system: Bacillus subtilis; experiment: Antimicrobial activity against Bacillus subtilis NCIM 2999 assessed as diameter of growth inhibition zone at 10 ug/disk after 24 hr by paper disk diffusion method; details: NCIM 2999, 24 h, read-out: DIZ

| SMILES | zone of inhibition at 100 µg/mL [1] [mm] | MIC [2] [µg/mL] | IC50 [3] [µg/mL] | MIC [4] [µg/mL] | IC50 [5] [µg/mL] | MIC [6] [µg/mL] | MIC [7] [µg/mL] | MIC [8] [µg/mL] | zone of inhibition at 100 µg/mL [9] [mm] | zone of inhibition at 100 µg/mL [10] [mm] | zone of inhibition at 100 µg/mL [11] [mm] | zone of inhibition at 100 µg/mL [12] [mm] | MIC [13] [µg/mL] | zone of inhibition at 100 µg/mL [14] [mm] | IC50 [15] [µg/mL] | IC50 [16] [µg/mL] | further results |
| --- | --- | --- | --- | --- | --- | --- | --- | --- | --- | --- | --- | --- | --- | --- | --- | --- | --- |
| NC(CCC(=O)n1c(-c2cc(F)cc(F)c2)nc2ccccc2c1=O)C(=O)O (stereo not drawn) | 14 | 15 (≈ 38.7 µM) | 27.4 (≈ 70.7 µM) | 50 (≈ 129 µM) | 38.1 (≈ 98.4 µM) | 25 (≈ 64.5 µM) | 13 (≈ 33.6 µM) | 15 (≈ 38.7 µM) | 11 | 10.4 | 12 | 16 | 25 (≈ 64.5 µM) | 11 | 45.7 (≈ 118 µM) | – | – |
| NC(CCC(=O)n1c(-c2ccc(F)c(F)c2F)nc2ccccc2c1=O)C(=O)O (stereo not drawn) | 14.8 | 8 (≈ 19.7 µM) | 29.7 (≈ 73.3 µM) | 12 (≈ 29.6 µM) | 55.1 (≈ 136 µM) | 10 (≈ 24.7 µM) | 8 (≈ 19.7 µM) | 10 (≈ 24.7 µM) | 13.6 | 14.4 | 12.7 | 13.5 | 15 (≈ 37 µM) | 13.2 | 48.2 (≈ 119 µM) | – | – |
| NC(CCC(=O)n1c(-c2cc(F)ccc2F)nc2ccccc2c1=O)C(=O)O (stereo not drawn) | 17 | 12.5 (≈ 32.3 µM) | 34.9 (≈ 90.1 µM) | 30 (≈ 77.5 µM) | 41.8 (≈ 108 µM) | 35 (≈ 90.4 µM) | 12.5 (≈ 32.3 µM) | 10 (≈ 25.8 µM) | 11.4 | 10.9 | 11 | 12 | 15 (≈ 38.7 µM) | 14 | 50.8 (≈ 131 µM) | – | – |
| NC(CCC(=O)n1c(-c2ccc(Cl)cc2)nc2ccccc2c1=O)C(=O)O (stereo not drawn) | 12 | 11.2 (≈ 29 µM) | 37.1 (≈ 96.2 µM) | 15 (≈ 38.9 µM) | 49 (≈ 127 µM) | 15 (≈ 38.9 µM) | 10 (≈ 25.9 µM) | 12 (≈ 31.1 µM) | 13.6 | 12.1 | 11.5 | 12.7 | 15 (≈ 38.9 µM) | 13 | 41.8 (≈ 108 µM) | 41.8 (≈ 108 µM) | – |
| NC(CCC(=O)n1c(Cc2ccccc2)nc2ccccc2c1=O)C(=O)O (stereo not drawn) | 11 | 50 (≈ 137 µM) | 26.6 (≈ 72.8 µM) | > 100 | 29.8 (≈ 81.6 µM) | > 100 | 50 (≈ 137 µM) | 100 (≈ 274 µM) | 14 | 10.2 | 11 | 7 | 75 (≈ 205 µM) | 10 | 31.6 (≈ 86.5 µM) | 36.2 (≈ 99.1 µM) | – |
| NC(CCC(=O)n1c(OCc2ccccc2Cl)nc2ccccc2c1=O)C(=O)O (stereo not drawn) | 13 | 50 (≈ 120 µM) | 26.1 (≈ 62.8 µM) | 50 (≈ 120 µM) | 27.7 (≈ 66.6 µM) | 50 (≈ 120 µM) | 30 (≈ 72.1 µM) | 25 (≈ 60.1 µM) | 13.7 | 11 | 10 | 14 | 40 (≈ 96.2 µM) | 12 | 31.4 (≈ 75.5 µM) | 38.7 (≈ 93.1 µM) | – |
| COc1ccc(-c2nc3ccccc3c(=O)n2C(=O)CCC(N)C(=O)O)cc1 (stereo not drawn) | 13 | 50 (≈ 131 µM) | 18.4 (≈ 48.2 µM) | 20 (≈ 52.4 µM) | 23.4 (≈ 61.4 µM) | 25 (≈ 65.6 µM) | 30 (≈ 78.7 µM) | 25 (≈ 65.6 µM) | 10 | 14 | 11 | 10 | 15 (≈ 39.3 µM) | 14 | 20.1 (≈ 52.7 µM) | 20.1 (≈ 52.7 µM) | – |
| NC(CCC(=O)n1c(-c2ccc([N+](=O)[O-])cc2)nc2ccccc2c1=O)C(=O)O (stereo not drawn) | 11 | 12.5 (≈ 31.5 µM) | 36.4 (≈ 91.8 µM) | 25 (≈ 63.1 µM) | 39 (≈ 98.4 µM) | 25 (≈ 63.1 µM) | 9.6 (≈ 24.2 µM) | 10 (≈ 25.2 µM) | 14.1 | 13.6 | 9 | 16 | 12.5 (≈ 31.5 µM) | 14 | – | 49 (≈ 124 µM) | – |
| Nc1ccc(-c2nc3ccccc3c(=O)n2C(=O)CCC(N)C(=O)O)cc1 (stereo not drawn) | 16 | 30 (≈ 81.9 µM) | 17.5 (≈ 47.8 µM) | 50 (≈ 136 µM) | 18 (≈ 49.1 µM) | 50 (≈ 136 µM) | 25 (≈ 68.2 µM) | 50 (≈ 136 µM) | 12.5 | 11 | 15 | 13 | 50 (≈ 136 µM) | 10 | – | 19.4 (≈ 53 µM) | – |
| Cc1ccccc1-c1nc2ccccc2c(=O)n1C(=O)CCC(N)C(=O)O (stereo not drawn) | 11 | 30 (≈ 82.1 µM) | 24.9 (≈ 68.1 µM) | 50 (≈ 137 µM) | 30.4 (≈ 83.2 µM) | 30 (≈ 82.1 µM) | 50 (≈ 137 µM) | 25 (≈ 68.4 µM) | 12 | 15 | 10 | 12 | 25 (≈ 68.4 µM) | 11 | – | 29.1 (≈ 79.6 µM) | – |
| NC(CCC(=O)n1c(-c2ccccc2)nc2ccccc2c1=O)C(=O)O (stereo not drawn) | 12 | 50 (≈ 142 µM) | 29.7 (≈ 84.5 µM) | 50 (≈ 142 µM) | 31.2 (≈ 88.8 µM) | 75 (≈ 213 µM) | 45 (≈ 128 µM) | 30 (≈ 85.4 µM) | 14 | 10 | 15 | 11 | 25 (≈ 71.2 µM) | 11 | – | 36 (≈ 102 µM) | – |
| NC(CCC(=O)n1c(-c2ccc(O)cc2)nc2ccccc2c1=O)C(=O)O (stereo not drawn) | 13 | 25 (≈ 68.1 µM) | 14.3 (≈ 38.9 µM) | 50 (≈ 136 µM) | 17.8 (≈ 48.5 µM) | 50 (≈ 136 µM) | 25 (≈ 68.1 µM) | 40 (≈ 109 µM) | 9 | 15 | 15 | 9 | 40 (≈ 109 µM) | 13 | 15.2 (≈ 41.4 µM) | 15.2 (≈ 41.4 µM) | – |
| O=C1O[C@H]([C@@H](O)CO)C(O)=C1O [ASCORBIC ACID] | – | – | 12.6 (≈ 71.5 µM) | – | – | – | – | – | – | – | – | – | – | – | – | – | – |
| OC(Cn1cncn1)(Cn1cncn1)c1ccc(F)cc1F [FLUCONAZOLE] | – | – | – | – | – | – | – | 5 (≈ 16.3 µM) | – | – | – | – | 5 (≈ 16.3 µM) | – | – | – | zone of inhibition at 10 µg/disc [17]: 19 mm; zone of inhibition at 10 µg/disc [18]: 16 mm |
| CN[C@@H]1[C@H](O[C@H]2[C@H](O[C@H]3[C@H](O)[C@@H](O)[C@H](N=C(N)N)[C@@H](O)[C@@H]3N=C(N)N)O[C@@H](C)[C@]2(O)C=O)O[C@@H](CO)[C@H](O)[C@H]1O [STREPTOMYCIN] | – | 5 (≈ 8.6 µM) | – | 5 (≈ 8.6 µM) | – | 5 (≈ 8.6 µM) | 5 (≈ 8.6 µM) | – | – | – | – | – | – | – | – | – | zone of inhibition at 10 µg/disc [19]: 14 mm; zone of inhibition at 10 µg/disc [20]: 14.1 mm; zone of inhibition at 10 µg/disc [21]: 16.5 mm; zone of inhibition at 10 µg/disc [22]: 13.4 mm |
